Several values for one entry are separate records, joined by “and”; a condition that tells them apart may be missing. Identical values can stand only once.
Legend:
Saccharomyces cervisiae = assay: Yeast growth inhibition assay; type: cell-based; details: FIG. 14
Description: Some of the inventive compounds are effective for inhibiting yeast cell growth. This effect can be assayed by measuring growth of the yeast strain Saccharomyces cervisiae. A control yeast stain Saccharomyces cervisiae (BIO 101, Inc.) is grown overnight in YEPD broth at 30° C. A one to hundred dilution of the yeast culture is made with fresh YEPD broth. 100 μl Aliquots of the diluted culture are distributed into 96-wells titer plates. 100 μl Aliquots of drug is diluted in YEPD broth were then added to the wells. The titer plates are incubated at room temperature with continuous shaking. The cell density of the individual cultures are determined using a microplate reader with a A630 filter. The A630 of the individual yeast cultures are compared to control samples without adding drug. This assay is predictive of direct antimicrobial, particularly yeast and fungal, activity of the drugs studied.
This example illustrates the effects of CT2501R (a reference compound), CT2536R, CT2536S, CT1596R, and CT1596S of yeast growth (Saccromyces cerevasie) in the presence or absence of drug. These assays measure anti-yeast and anti-fungal activity of the drugs tested. […] Therefore either the R enantiomer, the S enantiomer or a racemic mixture of CT2536 are potential topical or systemic antimicrobial drugs.

mast cell degranulation = assay: Serotonin release assay (inhibition of mast cell degranulation); type: cell-based; design: INCORP / TOTAL: unit not given here; details: 50 μM; for RELEASE-SPONT: average corrected for spontaneous release; for AVERAGE % RELEASE: average of duplicates; for % RELEASE / INCORP / RELEASE / RELEASE X2 / TOTAL: duplicate wells; for inhibition at 50 µM: Mast cell
Excerpt: A serotonin release assay is utilized to study the utility of the inventive compounds for treatment of asthma and allergy. […] This assay measures mast cell degranulation, which is an early phase reaction to allergen challenge. Mast cells grown in tissue culture are first loaded with ^3 H serotonin, which is incorporated into the granules in the cells. The mast cells are sensitized with antigen specific monoclonal IgE, and then triggered to degranulate with the specific antigen (dinitorphenolbound to BSA (DNP)). When the cells degranulate, ^3 H Serotonin is released into the medium, and can be measured directly. The ability of the inventive compounds to inhibit the degranulation response is determined by the decrease in ^3 H Serotonin released in the presence of drug and is represented as % INHIBITION.
Specifically, the serotonin release assay seeds 2×10^5 cells in 0.5 ml medium in duplicate for spontaneous release, IgE+DNP, IgE+DNP+EtOH (vehicle control), and inventive compounds. […] The cells are incubated for 18 hours at 37° C. in 5% CO2, washed twice with 0.5 ml Isotonic Buffer (25 mM disodium PIPES pH 7.1,100 mM NaCl, 5 mM KCl, 5 mM glucose, 0.4 mM MgCl2, 1mM CaCl2, 0.1% BSA), and sterile filtered. 250 μl Isotonic Buffer is added per well and the plates are equilibrated in an incubator for about 10 min. Drug is added and cells are activated with 40 ng/ml DNP-BSA (1 mg/ml Diluted 1:200 in Isotonic Buffer) for 45 minutes using 2 μl/250 μl. Spontaneous release is determined in incubated cells with 250 μl Isotonic Buffer for 45 minutes and the reaction is stopped by removing supernatant and centrifuging at ~4000 rpm in microfuge for 15 seconds to remove any detached cells. Released radiolableled serotonin is counted. To determine amount of ^3 H-serotonin incorporated into the cells, (a) remove Isotonic Buffer and lyse cells by adding 250 μl 1% Triton-X100 in PBS, (b) add to 5 ml scintillation fluid, (c) wash 2× with Triton/PBS, and (d) add washes to scintillation tube. Percent serotonin release is calculated by dividing the amount of released serotonin by the sum of incorporated plus released serotonin and correcting for spontaneous released serotonin. Compound inhibition is calculated by dividing the percent serotonin release in the presence of a compound by the percent serotonin release in the absence of the compound.
This assay is described above and provides an in vitro model for an allergy and asthma therapeutic product.

[1] = tested on: PBMC (peripheral blood mononuclear cells); assay: Two-way mixed lymphocyte reaction (MLR), proliferation of PBMC to allogeneic stimulation; type: cell-based, human; details: FIGS. 3 and 4
Excerpt: Various in vitro assays can be used to measure effects of the inventive compounds to module immune activity and have antitumor activity using a variety of cellular types. For example, a mixed lymphocyte reaction (MLR) provides a valuable screening tool to determine biological activity of each inventive compound. In the MLR, PBMCs (peripheral blood mononuclear cells) are obtained by drawing whole blood from healthy volunteers in a heparinized container and diluted with an equal volume of hanks balanced salt solution (HBSS). This mixture is layered on a […] density gradient, such as a Ficoll-Hypaque® gradient (specific gravity 1.08), and centrifuged at 1000×g for 25 minutes at room temperature or cooler. PBMC are obtained from a band at a plasma-Ficoll interface, separated and washed at least twice in a saline solution, such as HBSS. Contaminating red cells are lysed, such as by ACK lysis for 10 min at 37° C., and the PBMCs are washed twice in HBSS. The pellet of purified PBMCs is resuspended in complete medium, such as RPMI 1640 plus 20% human inactivated serum. Proliferative response of PBMC to allogeneic stimulation is determined in a two-way MLR performed in a 96-well microliter plate. Briefly, approximately 10^5 test purified PBMC cells in […] complete medium are co-cultured with approximately 10^5 autologous (control culture) or allogeneic (stimulated culture) PBMC cells, wherein the allogeneic cells are from HLA disparate individuals. Varying doses of compounds (drug) are added at the time of addition of cells to the microtiter plate. The cultures are incubated for 6 days at 37° C. in a 5% CO2 atmosphere. At the conclusion of the incubation tritiated thymidine is added (for example, […] of 40 to 60 Ci/mmole) and proliferation determined by liquid scintillation counting.
This example illustrates a mixed lymphocyte reaction assay of inventive compounds by showing the IC50 value of each compound in this assay and a dose response of several compounds to illustrate an IC50 determination.

human stromal cells = assay: PDGF-stimulated proliferation of human stromal cells; type: cell-based; details: 50 ng/ml PDGF-BB; drug one hour prior; FIGS. 15 and 16; read-out: IC50, stromal cell proliferation
Description: (§1) This assay is an in vitro model for restenosis and treatment of atherosclerosis and coronary artery disease. Stromal cells were starved in serum-free media for one day and then stimulated with 50 ng/ml PDGF-BB. The drugs were added at the indicated concentrations one hour prior to PDGF stimulation. Tritiated thymidine was added for one day at the time of PDGF stimulation and the cells were harvested and counted by liquid scintillation counting 24 hrs later.
Another assay for measuring activity of the inventive compounds involves determining PDGF (platelet derived growth factor) proliferative response using human-derived stromal cells. […] Two to three days later, the stromal cells are starved in serum-free media. Twenty four hours later, the cells are treated with a stimulating agent, such as PDGF-AA, PDGF-BB or basic FGF (fibroblast growth factor) with or without IL-1α or TNF, and tritiated thymidine. Cell proliferation is determined by liquid scintillation counting.
as §1

murine thymocyte = assay: Murine thymocyte stimulated by ConA and IL-2 (T cell immune suppression); type: cell-based; details: FIGS. 8 and 9
Description: A thymocyte costimulator assay is conducted to evaluate the inventive compounds to inhibit activation and proliferation of thymocytes caused by stimulation with Con A and interleukin-1 (IL-1), or […]. Thymuses are obtained from mice (e.g., female Balb/C mice) and the thymuses are removed and dissociated into culture media (e.g., RPMI 1640 without serum supplementation). The dissociated thymus tissue and cell suspension is transferred to centrifuge tubes and allowed to settle, washed with HBSS and resuspended in serum-supplemented culture media (e.g., RPMI 1640 with 10% fetal calf serum). Any contaminating red cells are lysed, and viable cells are resuspended and counted. Thymocytes are plated (e.g., 96-well plates at a density of 2×10^5 cells/well) and a stimulating agent, such as Con A, IL-1 (e.g., IL-1α) or IL-2 is added to the well. The cells are incubated for 4 days at 37° C. On the fourth day, the cells are pulsed with tritiated thymidine and cell proliferation determined. Inventive compounds are added at the time of stimulating agent addition.
A third assay measures an ability of an inventive compound to inhibit IL-2-induced proliferation of murine thymocytes. Thymus glands are obtained from 4-6 week old mice and plated as a single cell suspension into flat bottomed wells in RPMI 1640 medium supplemented with 10% fetal calf serum. The inventive compounds are added to appropriate wells and the cells are incubated for 1-2 hrs. Concanavilin A (ConA, 0.25 mg/ml) and […] (20 ng/ml) are added and the plates are incubated for 4 days. Cell proliferation is determined as above.
FIG. 8 compares T cell immune suppression data of thirteen inventive compounds by comparing their IC50 values in a murine thymocyte stimulated by ConA and IL-2 in vitro model.

[2] = tested on: transformed cells (Ras 3T3) and normal 3T3 cells; assay: Cytotoxicity in transformed cells (Ras 3T3) versus normal 3T3 cells; type: cell-based; details: LD50 comparison; FIG. 17
Description: Each inventive compound is investigated for cytotoxicity to determine appropriate doses for biological activity assays and to prevent cytotoxic reactions in in vitro assays when characterizing activity. Cells (e.g., NIH-3T3, Ras transformed 3T3 cells, malignant melanoma LD2 cells, etc.) are added to microtiter plates and drug is added about two days after plating. Cell viability is determined using a fluorescent viability stain (e.g., 2',7'-bis-(2-carboroxyethyl)-5-(and -6)-carboxyfluorescein acetoxymethyl ester, BCECF excitation 488 nm and emission 525 nm) 24, 48 or 72 hours after addition of the drug.
This example illustrates a comparison of cytotoxicity determinations for CT1534 and CT1539 in transformed cells (Ras 3T3) and in normal 3T3 cells to determine the in vitro LD50 value in both cell types and to look for differential cytotoxicity effects between the cell types.

[3] = tested on: CMV promoter activity in transformed (adenovirus) cells; assay: CMV promoter assay (gene transcription and translation; cytotoxicity in transformed cells); type: cell-based
Excerpt: (§2) FIG. 18 illustrates data regarding proliferative activity of various inventive compounds for inducting CMV promoter activity. The CMV promoter assay measures gene transcription and translation activity wherein any active compounds will have cytotoxic activity to inhibit cellular protein synthesis machinery in transformed (adenovirus) cells.
as §2, with “This example” for “FIG. 18”

Row | SMILES | inhibition of yeast growth (Saccharomyces cervisiae) | % INHIBITION (mast cell degranulation; Table 4) [%] | RELEASE-SPONT (mast cell degranulation; Table 4) [%] | AVERAGE % RELEASE (mast cell degranulation; Table 4) [%] | % RELEASE (mast cell degranulation; Table 4) | INCORP (mast cell degranulation; Table 4) | RELEASE (mast cell degranulation; Table 4) | RELEASE X2 (mast cell degranulation; Table 4) | TOTAL (mast cell degranulation; Table 4) | % INHIBITION (mast cell degranulation; Table 5) [%] | IC50 [1] [µM] | IC50 (human stromal cells) [µM] | T cell immune suppressing activity (murine thymocyte) | differential cytotoxicity, transformed vs normal cells [2] | inhibition at 50 µM (mast cell degranulation; Table 4) [%] | IC50 [3] [µM]
1 | CC(C)=CCCC(C)CCn1c(=O)c2c(ncn2C)n(C)c1=O (racemic) [CT1596] | enantiomeric selectivity | – | – | – | – | – | – | – | – | – | – | – | – | – | – | –
2 | C=CCCCCCCCCCn1c(=O)c2c(ncn2COC(=O)C(C)(C)C)n(C)c1=O [CT1403, 1-(10-undecenyl)-3-methyl-7-methylpivaloylxanthine] | – | 84.23 | 1.26 | 17.82 | 17.37% and 18.27% | 23246 and 25691 | 2443 and 2872 | 4886 and 5744 | 28132 and 31435 | 84.23 | 10 | < 10 | – | – | – | –
3 | C=CCCCCCCCn1c(=O)c2c(ncn2COC(=O)C(C)(C)C)n(C)c1=O [CT1411, 1-(8-nonenyl)-3-methyl-7-methylpivaloylxanthine] | – | 87.89 | 0.97 | 17.53 | 16.79% and 18.27% | 24627 and 24663 | 2484 and 2756 | 4968 and 5512 | 29595 and 30175 | 87.89 | – | < 10 | potent immune suppressing activity | – | – | –
4 | C=CCCCCn1c(=O)c2c(ncn2C)n(C)c1=O [CT1539, 1-(5-hexenyl)-3,7-dimethylxanthine] | – | – | 5.15 | 21.71 | – | – | – | – | – | – | – | – | – | equally cytotoxic for both cell types | 35.8 | > 500
5 | CC(C)=CCC[C@@H](C)CCCn1c(=O)c2c(ncn2C)n(C)c1=O [CT2536R, 1-(4-(R)-Methyl-8-methylnon-7-enyl)-3,7-dimethylxanthine] | strongly inhibited yeast growth | – | -0.55 | 16.00 | – | – | – | – | – | – | – | – | – | – | 107 | 30
6 | CC(C)=CCC[C@H](C)CCCn1c(=O)c2c(ncn2C)n(C)c1=O [CT2536S, 1-(4-(S)-Methyl-8-methylnon-7-enyl)-3,7-dimethylxanthine] | strongly inhibited yeast growth | – | 0.21 | 16.76 | – | – | – | – | – | – | – | – | – | – | 97.4 | 30

Reference: US5521315A, “Olefin substituted long chain compounds” (priority 1993, dated 1996)
